Measurements: ChEMBL document CHEMBL3045869, “Efficacy of fungicides with various modes of action in controlling the early stages of an Erysiphe necator-induced epidemic” (2010)
The source made the active and inactive calls. No cut-off for these calls is given here.

Tests used:
Erysiphe necator [1] = assay: Antifungal activity against Erysiphe necator biotype B assessed as disease severity at 0.625 g a.i./l applied 4 days post-inoculation measured after 14 days during cycle 1 by leaf-disk method relative to untreated-control; format: functional
Erysiphe necator [2] = assay: Antifungal activity against Erysiphe necator biotype B assessed as number of spores at 0.625 g a.i./l applied 4 days post-inoculation measured after 14 days during cycle 1 by leaf-disk method (reference value: 35.9 x 10^3 cm'-2); format: functional
Erysiphe necator [3] = assay: Antifungal activity against Erysiphe necator biotype B assessed as number of spores at 0.625 g a.i./l applied 4 days post-inoculation measured after 14 days during cycle 2 by leaf-disk method (reference value: 44.4 x 10^3 cm'-2); format: functional
Erysiphe necator [4] = assay: Antifungal activity against Erysiphe necator biotype B assessed as AUDPC at 0.625 g a.i./l applied 13 days post-inoculation measured after 14 days during cycle 2 by leaf-disk method (reference value: 654); format: functional
Erysiphe necator [5] = assay: Antifungal activity against Erysiphe necator biotype B assessed as AUDPC at 0.625 g a.i./l applied 4 days post-inoculation measured after 14 days during cycle 2 by leaf-disk method (reference value: 844); format: functional
Erysiphe necator [6] = assay: Antifungal activity against Erysiphe necator biotype B assessed as disease severity at 0.625 g a.i./l applied 4 days post-inoculation measured immediately during cycle 1 by leaf-disk method relative to untreated-control; format: functional
Erysiphe necator [7] = assay: Antifungal activity against Erysiphe necator biotype B assessed as AUDPC at 0.625 g a.i./l applied 4 days post-inoculation measured after 14 days during cycle 1 by leaf-disk method (reference value: 695.6); format: functional
Erysiphe necator [8] = assay: Antifungal activity against Erysiphe necator biotype B assessed as disease severity at 0.625 g a.i./l applied 48 hr post-inoculation measured after 14 days by leaf-disk method relative to untreated-control; format: functional
Erysiphe necator [9] = assay: Antifungal activity against Erysiphe necator biotype B assessed as disease severity at 0.625 g a.i./l applied 48 hr post-inoculation measured after 7 days by leaf-disk method relative to untreated-control; format: functional
Erysiphe necator [10] = assay: Antifungal activity against Erysiphe necator biotype B assessed as AUDPC at 0.625 g a.i./l applied 48 hr post-inoculation measured after 14 days by leaf-disk method (reference value: 394); format: functional
Erysiphe necator [11] = assay: Antifungal activity against Erysiphe necator biotype B assessed as number of spores at 0.625 g a.i./l applied 13 days post-inoculation measured after 14 days during cycle 2 by leaf-disk method (reference value: 47.6 x 10^3 cm'-2); format: functional
Erysiphe necator [12] = assay: Antifungal activity against Erysiphe necator biotype B assessed as number of spores at 0.625 g a.i./l applied 48 hr post-inoculation measured after 14 days by leaf-disk method (reference value: 43.5 x 10^3 cm'-2); format: functional
Erysiphe necator [13] = assay: Antifungal activity against Erysiphe necator biotype B assessed as reduction in disease severity at 0.5 g a.i./l applied 48 hr post-inoculation measured after 14 days by leaf-disk method relative to untreated-control; format: functional, organism-based
Erysiphe necator [14] = assay: Antifungal activity against Erysiphe necator biotype B assessed as reduction in AUDPC at 0.5 g a.i./l applied 4 days post-inoculation measured after 11 days during cycle 2 by leaf-disk method relative to untreated-control; format: functional, organism-based
Erysiphe necator [15] = assay: Antifungal activity against Erysiphe necator biotype B assessed as disease severity at 0.5 g a.i./l applied 4 days post-inoculation measured after 14 days during cycle 1 by leaf-disk method relative to untreated-control; format: functional
Erysiphe necator [16] = assay: Antifungal activity against Erysiphe necator biotype B assessed as AUDPC at 0.5 g a.i./l applied 48 hr post-inoculation measured after 14 days by leaf-disk method (reference value: 394); format: functional
Erysiphe necator [17] = assay: Antifungal activity against Erysiphe necator biotype B assessed as disease severity at 0.5 g a.i./l applied 4 days post-inoculation measured immediately during cycle 1 by leaf-disk method relative to untreated-control; format: functional
Erysiphe necator [18] = assay: Antifungal activity against Erysiphe necator biotype B assessed as AUDPC at 0.5 g a.i./l applied 4 days post-inoculation measured after 14 days during cycle 2 by leaf-disk method (reference value: 844); format: functional
Erysiphe necator [19] = assay: Antifungal activity against Erysiphe necator biotype B assessed as AUDPC at 0.5 g a.i./l applied 4 days post-inoculation measured after 14 days during cycle 1 by leaf-disk method (reference value: 695.6); format: functional
Erysiphe necator [20] = assay: Antifungal activity against Erysiphe necator biotype B assessed as number of spores at 0.5 g a.i./l applied 48 hr post-inoculation measured after 14 days by leaf-disk method (reference value: 43.5 x 10^3 cm'-2); format: functional
Erysiphe necator [21] = assay: Antifungal activity against Erysiphe necator biotype B assessed as disease severity at 0.5 g a.i./l applied 13 days post-inoculation measured after 14 days during cycle 2 by leaf-disk method relative to untreated-control; format: functional
Erysiphe necator [22] = assay: Antifungal activity against Erysiphe necator biotype B assessed as reduction in disease severity at 0.5 g a.i./l applied 4 days post-inoculation measured after 11 days during cycle 2 by leaf-disk method relative to untreated-control; format: functional, organism-based
Erysiphe necator [23] = assay: Antifungal activity against Erysiphe necator biotype B assessed as reduction in sporulation at 0.5 g a.i./l applied 4 days post-inoculation measured after 11 days during cycle 2 by leaf-disk method relative to untreated-control; format: functional, organism-based
Erysiphe necator [24] = assay: Antifungal activity against Erysiphe necator biotype B assessed as disease severity at 0.5 g a.i./l applied 13 days post-inoculation measured after 6 days during cycle 2 by leaf-disk method relative to untreated-control; format: functional
Erysiphe necator [25] = assay: Antifungal activity against Erysiphe necator biotype B assessed as number of spores at 0.5 g a.i./l applied 4 days post-inoculation measured after 14 days during cycle 1 by leaf-disk method (reference value: 35.9 x 10^3 cm'-2); format: functional
Erysiphe necator [26] = assay: Antifungal activity against Erysiphe necator biotype B assessed as reduction in mycelial growth at 0.5 g a.i./l applied 4 days post-inoculation measured after 11 days during cycle 2 by leaf-disk method relative to untreated-control; format: functional, organism-based
Erysiphe necator [27] = assay: Antifungal activity against Erysiphe necator biotype B assessed as number of spores at 0.5 g a.i./l applied 13 days post-inoculation measured after 14 days during cycle 2 by leaf-disk method (reference value: 47.6 x 10^3 cm'-2); format: functional
Erysiphe necator [28] = assay: Antifungal activity against Erysiphe necator biotype B assessed as AUDPC at 0.5 g a.i./l applied 13 days post-inoculation measured after 14 days during cycle 2 by leaf-disk method (reference value: 654); format: functional
Erysiphe necator [29] = assay: Antifungal activity against Erysiphe necator biotype B assessed as number of spores at 0.5 g a.i./l applied 4 days post-inoculation measured after 14 days during cycle 2 by leaf-disk method (reference value: 44.4 x 10^3 cm'-2); format: functional
Erysiphe necator [30] = assay: Antifungal activity against Erysiphe necator biotype B assessed as number of spores at 1 g a.i./l applied 4 days post-inoculation measured after 14 days during cycle 2 by leaf-disk method (reference value: 44.4 x 10^3 cm'-2); format: functional
Erysiphe necator [31] = assay: Antifungal activity against Erysiphe necator biotype B assessed as reduction in mycelial growth at 1 g a.i./l applied 13 days post-inoculation measured after 14 days during cycle 2 by leaf-disk method relative to untreated-control; format: functional, organism-based
Erysiphe necator [32] = assay: Antifungal activity against Erysiphe necator biotype B assessed as inhibition of disease severity at 1 g a.i./l applied 48 hr post-inoculation measured after 14 days by leaf-disk method relative to control; format: functional; design: scale not given: the % may be the effect or the level left
Erysiphe necator [33] = assay: Antifungal activity against Erysiphe necator biotype B assessed as inhibition of mycelial growth at 1 g a.i./l applied 48 hr post-inoculation measured after 14 days by leaf-disk method; format: functional, organism-based
Erysiphe necator [34] = assay: Antifungal activity against Erysiphe necator biotype B assessed as disease severity at 1 g a.i./l applied 4 days post-inoculation measured on day 13 during cycle 1 by leaf-disk method relative to untreated-control; format: functional
Erysiphe necator [35] = assay: Antifungal activity against Erysiphe necator biotype B assessed as AUDPC at 1 g a.i./l applied 4 days post-inoculation measured after 14 days during cycle 1 by leaf-disk method (reference value: 695.6); format: functional
Erysiphe necator [36] = assay: Antifungal activity against Erysiphe necator biotype B assessed as number of spores at 1 g a.i./l applied 48 hr post-inoculation measured after 14 days by leaf-disk method (reference value: 43.5 x 10^3 cm'-2); format: functional
Erysiphe necator [37] = assay: Antifungal activity against Erysiphe necator biotype B assessed as AUDPC at 1 g a.i./l applied 48 hr post-inoculation measured after 14 days by leaf-disk method (reference value: 394); format: functional
Erysiphe necator [38] = assay: Antifungal activity against Erysiphe necator biotype B assessed as number of spores at 1 g a.i./l applied 13 days post-inoculation measured after 14 days during cycle 2 by leaf-disk method (reference value: 47.6 x 10^3 cm'-2); format: functional
Erysiphe necator [39] = assay: Antifungal activity against Erysiphe necator biotype B assessed as number of spores at 1 g a.i./l applied 4 days post-inoculation measured after 14 days during cycle 1 by leaf-disk method (reference value: 35.9 x 10^3 cm'-2); format: functional
Erysiphe necator [40] = assay: Antifungal activity against Erysiphe necator biotype B assessed as inhibition of mycelial growth at 1 g a.i./l applied 4 days post-inoculation measured on after 14 days during cycle 2 by leaf-disk method relative to untreated-control; format: functional, organism-based
Erysiphe necator [41] = assay: Antifungal activity against Erysiphe necator biotype B assessed as disease severity at 1 g a.i./l applied 13 days post-inoculation measured after 6 days during cycle 2 by leaf-disk method relative to untreated-control; format: functional
Erysiphe necator [42] = assay: Antifungal activity against Erysiphe necator biotype B assessed as AUDPC at 1 g a.i./l applied 4 days post-inoculation measured after 14 days during cycle 2 by leaf-disk method (reference value: 844); format: functional
Erysiphe necator [43] = assay: Antifungal activity against Erysiphe necator biotype B assessed as AUDPC at 1 g a.i./l applied 13 days post-inoculation measured after 14 days during cycle 2 by leaf-disk method (reference value: 654); format: functional
Erysiphe necator [44] = assay: Antifungal activity against Erysiphe necator biotype B assessed as disease severity at 1 g a.i./l applied 13 days post-inoculation measured after 14 days during cycle 2 by leaf-disk method relative to untreated-control; format: functional
Erysiphe necator [45] = assay: Antifungal activity against Erysiphe necator biotype B assessed as disease severity at 1 g a.i./l applied 4 days post-inoculation measured immediately during cycle 1 by leaf-disk method relative to untreated-control; format: functional

CO/N=C(\C(=O)OC)c1ccccc1CO/N=C(\C)c1cccc(C(F)(F)F)c1
Activity (Erysiphe necator [1]): 60%
Activity (Erysiphe necator [2]): 0.2 ×10³ /cm2
Activity (Erysiphe necator [3]): 0.06 ×10³ /cm2
AUDPC (Erysiphe necator [4]): 6
AUDPC (Erysiphe necator [5]): 0
Activity (Erysiphe necator [6]): 24%
AUDPC (Erysiphe necator [7]): 459
Activity (Erysiphe necator [8]): 31.8%
Activity (Erysiphe necator [9]): 3%
AUDPC (Erysiphe necator [10]): 86
Activity (Erysiphe necator [11]): 1 ×10³ /cm2
Activity (Erysiphe necator [12]): 2.1 ×10³ /cm2

Fc1ccc(Oc2ccnc3cc(Cl)cc(Cl)c23)cc1 [QUINOXYFEN]
Activity (Erysiphe necator [13]): Active
Activity (Erysiphe necator [14]): Active
Activity (Erysiphe necator [15]): 60%
AUDPC (Erysiphe necator [16]): 354
Activity (Erysiphe necator [17]): 24%
AUDPC (Erysiphe necator [18]): 6373
AUDPC (Erysiphe necator [19]): 442
Activity (Erysiphe necator [20]): 27.3 ×10³ /cm2
Activity (Erysiphe necator [21]): 89%
Activity (Erysiphe necator [22]): inactive
Activity (Erysiphe necator [23]): inactive
Activity (Erysiphe necator [24]): 5%
Activity (Erysiphe necator [25]): 10.7 ×10³ /cm2
Activity (Erysiphe necator [26]): inactive
Activity (Erysiphe necator [27]): 23.2 ×10³ /cm2
AUDPC (Erysiphe necator [28]): 361
Activity (Erysiphe necator [29]): 36.9 ×10³ /cm2

CC(C)(C)C(O)(CCc1ccc(Cl)cc1)Cn1cncn1 (stereo not given) [TEBUCONAZOLE]
Activity (Erysiphe necator [30]): 0.02 ×10³ /cm2
Activity (Erysiphe necator [31]): inactive
Activity (Erysiphe necator [32]): 0%
inhibition (Erysiphe necator [33]): Active
Activity (Erysiphe necator [34]): 0%
AUDPC (Erysiphe necator [35]): 56.6
Activity (Erysiphe necator [36]): 0.8 ×10³ /cm2
AUDPC (Erysiphe necator [37]): 0
Activity (Erysiphe necator [38]): 30.4 ×10³ /cm2
Activity (Erysiphe necator [39]): 0.2 ×10³ /cm2
inhibition (Erysiphe necator [40]): Active
Activity (Erysiphe necator [41]): 50%
AUDPC (Erysiphe necator [42]): 0
AUDPC (Erysiphe necator [43]): 612
Activity (Erysiphe necator [44]): 95%
Activity (Erysiphe necator [45]): 25%
